Biological target: High affinity nerve growth factor receptor (Homo sapiens, UniProt P04629)
Experiment: In Vitro Kinase Activity Assay: Compounds to be tested were dissolved in 100% DMSO in a range of concentrations from 10^-8 to 10^-3 M including negative control (DMSO), then diluted with Kinase Buffer (50 mM HEPES, pH 7.5, 1 mM EGTA, 10 mM MgCl2, 0.01% Tween-20, and 2 mM DTT, added fresh) to 4x the final concentration. The final curve included 11 concentrations (10^-11 to 10^-5 M) plus negative …

Chain of High affinity nerve growth factor receptor (P04629 whole entry): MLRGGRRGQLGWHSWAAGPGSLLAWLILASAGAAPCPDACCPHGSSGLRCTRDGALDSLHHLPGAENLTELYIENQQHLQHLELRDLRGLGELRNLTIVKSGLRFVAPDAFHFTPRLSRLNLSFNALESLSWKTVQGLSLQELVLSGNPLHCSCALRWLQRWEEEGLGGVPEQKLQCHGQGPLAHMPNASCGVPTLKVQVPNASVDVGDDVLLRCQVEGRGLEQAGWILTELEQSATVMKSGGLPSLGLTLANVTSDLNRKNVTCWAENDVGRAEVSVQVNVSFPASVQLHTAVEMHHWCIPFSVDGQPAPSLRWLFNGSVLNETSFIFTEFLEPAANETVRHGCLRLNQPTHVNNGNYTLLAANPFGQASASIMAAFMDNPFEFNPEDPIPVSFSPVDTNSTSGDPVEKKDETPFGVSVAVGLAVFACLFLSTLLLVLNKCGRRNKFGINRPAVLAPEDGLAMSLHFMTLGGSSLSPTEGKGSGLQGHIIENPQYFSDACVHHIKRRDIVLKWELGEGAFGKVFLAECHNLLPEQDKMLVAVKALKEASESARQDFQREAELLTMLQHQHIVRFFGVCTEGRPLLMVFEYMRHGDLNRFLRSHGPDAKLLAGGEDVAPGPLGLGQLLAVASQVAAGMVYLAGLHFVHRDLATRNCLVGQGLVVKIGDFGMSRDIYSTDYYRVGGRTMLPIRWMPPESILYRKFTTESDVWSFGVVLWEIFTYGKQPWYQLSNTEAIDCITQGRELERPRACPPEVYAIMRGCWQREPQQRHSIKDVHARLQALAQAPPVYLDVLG

CC(Cc1cc(F)ccc1F)Nc1cc[nH]c(=O)c1-c1nc2cc3c(cc2[nH]1)C(=O)N(C1CCN(C)CC1)C3=O (stereo unspecified)
IC50: 6.35 nM
